From US20230146455A1, “TREATMENT OF INFLAMMATORY DISEASES WITH PEPTIDES AND PHARMACEUTICAL COMPOSITIONS” (Yuyu Pharma, Inc., priority 2020, published 2023)
“And” between values parts separate entries of the source, which are not always exact repeats. Equal entries are not always repeated. Where a SMILES comes first, the peptide text is derived from it. [ ]: non-standard residue; d: D form. Hyp = O=C(O)[C@@H]1C[C@@H](O)CN1

Tested on: IL-17A
Assay: Example 9 Luminex, LPS hPBMCs: IL-17A
Format: cell-based, human
Procedure: Treatment Human PBMCs were pretreated with YY-101, YDE-011 and YDE-043 or reference compound; Xiidra® at various concentration (ranging from 1 nM to 100 uM) for 2 h before stimulation. An equal volume of 0.5% DMSO was used as a vehicle control. Then, the cells were treated with LPS at 5 ug/ml. The supernatants from treated cells were harvested at 24 h and placed in a 96 well for Luminex cytokine & chemokine profiling using a Luminex 200 multiplex assay (Luminex; R&D system, USA).
The main study arm with triplicate wells per group in a 24-well plate: • 1. Blank • 2. PBMC: 0.5% DMSO • 3. PBMC+LPS (5 ug/ml) • 4. PBMC+YY-101 100 uM • 5. PBMC+YY-101 10 uM • 6. PBMC+YY-101 1 uM • 7. PBMC+YY-101 0.1 uM • 8. PBMC+YY-101 0.01 uM • 9. PBMC+LPS (5 ug/ml)+Xiidra®100 uM • 10. PBMC+LPS (5 ug/ml)+Xiidra® 10 uM • 11. PBMC+LPS (5 ug/ml)+Xiidra® 1 uM • 12. PBMC+LPS (5 ug/ml)+Xiidra®0.1 uM • 13. PBMC+LPS (5 ug/ml)+Xiidra®0.01 uM • 14. PBMC+LPS (5 ug/ml)+Xiidra®0.001 uM • 15. PBMC+LPS (5 ug/ml)+YY-101 100 uM • 16. PBMC+LPS (5 ug/ml)+YY-101 10 uM • 17. PBMC+LPS (5 ug/ml)+YY-101 1 uM • 18. PBMC+LPS (5 ug/ml)+YY-101 0.1 uM • 19. PBMC+LPS (5 ug/ml)+YY-101 0.01 uM • 20. PBMC+LPS (5 ug/ml)+YY-101 0.001 uM • 21. PBMC+LPS (5 ug/ml)+YDE-011 100 uM • 22. PBMC+LPS (5 ug/ml)+YDE-011 10 uM • 23. PBMC+LPS (5 ug/ml)+YDE-011 1 uM • 24. PBMC+LPS (5 ug/ml)+YDE-011 0.1 uM • 25. PBMC+LPS (5 ug/ml)+YDE-011 0.01 uM • 26. PBMC+LPS (5 ug/ml)+YDE-011 0.001 uM • 27. PBMC+LPS (5 ug/ml)+YDE-043 100 uM • 28. PBMC+LPS (5 ug/ml)+YDE-043 10 uM • 29. PBMC+LPS (5 ug/ml)+YDE-043 1 uM • 30. PBMC+LPS (5 ug/ml)+YDE-043 0.1 uM • 31. PBMC+LPS (5 ug/ml)+YDE-043 0.01 uM • 32. PBMC+LPS (5 ug/ml)+YDE-043 0.001 uM
Multiplex assay was used to measure 30 cytokines and chemokines. The 1:2, 1:10 and 1:200 diluted cell supernatant and serial dilution of the standard were dispensed into a 96 well plate at 50 ul/well. Then, the pre-mixed cocktail of antibody-coated magnetic beads was dispensed at 50 ul/well and incubated at room temperature for 2 h in a horizontal orbital microplate shaker at 800±500 rpm. The beads were washed using a magnetic device to prevent loss. The biotin-antibody was dispensed in 50 ul of each well and incubated at room temperature for 1 h in a shaker at 800±500 rpm. After washing, streptavidin-PE was added at 50 ul/well and incubated at room temperature for 30 min in a shaker under the same conditions. Finally, after washing, wash buffer (100 ul/well) was added to the plate and incubated in a shaker for 2 min. The Luminex™ 200 setting were set according to the manufacturer's protocol. The data was calculated with a standard five-parameter logistic nonlinear regression analysis of the data (xPonent software 4.2, USA). The levels of cytokine/chemokine are normalized to the live cell counts (1×10^5 cells/mL) and presented as concentrations per mL (pg/mL or ng/mL).

[1] = PBMC + LPS(5 ug/ml) + test article 0.001 uM, Mean
[2] = PBMC + LPS(5 ug/ml) + test article 0.001 uM, single replicates (1st, 2nd, 3rd)
[3] = PBMC + LPS(5 ug/ml) + test article 0.01 uM, Mean
[4] = PBMC + LPS(5 ug/ml) + test article 0.01 uM, single replicates (1st, 2nd, 3rd)
[5] = PBMC + LPS(5 ug/ml) + test article 0.1 uM, Mean
[6] = PBMC + LPS(5 ug/ml) + test article 0.1 uM, single replicates (1st, 2nd, 3rd)
[7] = PBMC + LPS(5 ug/ml) + test article 1 uM, Mean
[8] = PBMC + LPS(5 ug/ml) + test article 1 uM, single replicates (1st, 2nd, 3rd)
[9] = PBMC + LPS(5 ug/ml) + test article 10 uM, Mean
[10] = PBMC + LPS(5 ug/ml) + test article 10 uM, single replicates (1st, 2nd, 3rd)
[11] = PBMC + LPS(5 ug/ml) + test article 100 uM, Mean
[12] = PBMC + LPS(5 ug/ml) + test article 100 uM, single replicates (1st, 2nd, 3rd)
[13] = PBMC without LPS + test article 0.01 uM, Mean
[14] = PBMC without LPS + test article 0.01 uM, single replicates (1st, 2nd)
[15] = PBMC without LPS + test article 0.1 uM, Mean
[16] = PBMC without LPS + test article 0.1 uM, single replicates (1st, 2nd)
[17] = PBMC without LPS + test article 1 uM, Mean
[18] = PBMC without LPS + test article 1 uM, single replicates (1st, 2nd)
[19] = PBMC without LPS + test article 10 uM, Mean
[20] = PBMC without LPS + test article 10 uM, single replicates (1st, 2nd)
[21] = PBMC without LPS + test article 100 uM, Mean
[22] = PBMC without LPS + test article 100 uM, single replicates (1st, 2nd)

CC(C)C[C@H](NC(=O)CNC(=O)[C@H](CC(=O)O)NC(=O)[C@H](CCC(N)=O)NC(=O)CNC(=O)[C@@H]1C[C@@H](O)CN1)C(=O)N[C@@H](C)C(=O)NCC(=O)N1CCC[C@H]1C(=O)N[C@@H](CCCCN)C(=O)O [YY-101] (H-[Hyp]GQDGLAGPK-OH; N-terminus and C-terminus assumed)
Concentration, IL-17A [1]: 3.8 pg/mL | MFI, Bead name: IL-17A [1]: 2.2 | conc/live cell, IL-17A [1]: 0.6 pg/10^5 | Concentration, IL-17A [2]: 4.3 pg/ml (2×) and 2.7 pg/ml | MFI, Bead name: IL-17A [2]: 2.5 (2×) and 1.5 | conc/live cell, IL-17A [2]: 0.8 pg/10^5 and 0.6 pg/10^5 and 0.4 pg/10^5 | Concentration, IL-17A [3]: 4.9 pg/mL | MFI, Bead name: IL-17A [3]: 2.8 | conc/live cell, IL-17A [3]: 0.8 pg/10^5 | Concentration, IL-17A [4]: 6.0 pg/ml (2×) and 2.7 pg/ml | MFI, Bead name: IL-17A [4]: 3.5 (2×) and 1.5 | conc/live cell, IL-17A [4]: 0.9 pg/10^5 and 1.0 pg/10^5 and 0.4 pg/10^5 | Concentration, IL-17A [5]: 4.3 pg/mL | MFI, Bead name: IL-17A [5]: 2.5 | conc/live cell, IL-17A [5]: 0.7 pg/10^5 | Concentration, IL-17A [6]: 6.0 pg/ml (2×) and 1.0 pg/ml | MFI, Bead name: IL-17A [6]: 3.5 (2×) and 0.5 | conc/live cell, IL-17A [6]: 1.0 pg/10^5 (2×) and 0.2 pg/10^5 | Concentration, IL-17A [7]: 5.4 pg/mL | MFI, Bead name: IL-17A [7]: 3.2 | conc/live cell, IL-17A [7]: 0.8 pg/10^5 | Concentration, IL-17A [8]: 4.3 pg/ml (2×) and 7.5 pg/ml | MFI, Bead name: IL-17A [8]: 2.5 (2×) and 4.5 | conc/live cell, IL-17A [8]: 0.7 pg/10^5 and 0.6 pg/10^5 and 1.2 pg/10^5 | Concentration, IL-17A [9]: 3.3 pg/mL | MFI, Bead name: IL-17A [9]: 1.8 | conc/live cell, IL-17A [9]: 0.5 pg/10^5 | Concentration, IL-17A [10]: 4.3 pg/ml and 2.7 pg/ml (2×) | MFI, Bead name: IL-17A [10]: 2.5 and 1.5 (2×) | conc/live cell, IL-17A [10]: 0.7 pg/10^5 and 0.4 pg/10^5 (2×) | Concentration, IL-17A [11]: 1.6 pg/mL | MFI, Bead name: IL-17A [11]: 0.8 | conc/live cell, IL-17A [11]: 0.3 pg/10^5 | Concentration, IL-17A [12]: 1.0 pg/ml (2×) and 2.7 pg/ml | MFI, Bead name: IL-17A [12]: 0.5 (2×) and 1.5 | conc/live cell, IL-17A [12]: 0.2 pg/10^5 (2×) and 0.4 pg/10^5 | Concentration, IL-17A [13]: 7.5 pg/mL | MFI, Bead name: IL-17A [13]: 4.5 | conc/live cell, IL-17A [13]: 1.5 pg/10^5 | Concentration, IL-17A [14]: 7.5 pg/mL | MFI, Bead name: IL-17A [14]: 4.5 | conc/live cell, IL-17A [14]: 1.5 pg/10^5 and 1.6 pg/10^5 | Concentration, IL-17A [15]: 8.3 pg/mL | MFI, Bead name: IL-17A [15]: 5.0 | conc/live cell, IL-17A [15]: 1.5 pg/10^5 | Concentration, IL-17A [16]: 4.3 pg/mL and 12.2 pg/mL | MFI, Bead name: IL-17A [16]: 2.5 and 7.5 | conc/live cell, IL-17A [16]: 1.0 pg/10^5 and 2.1 pg/10^5 | Concentration, IL-17A [17]: 5.2 pg/mL | MFI, Bead name: IL-17A [17]: 3.0 | conc/live cell, IL-17A [17]: 0.9 pg/10^5 | Concentration, IL-17A [18]: 6.0 pg/mL and 4.3 pg/mL | MFI, Bead name: IL-17A [18]: 3.5 and 2.5 | conc/live cell, IL-17A [18]: 1.1 pg/10^5 and 0.8 pg/10^5 | Concentration, IL-17A [19]: 18.3 pg/mL | MFI, Bead name: IL-17A [19]: 11.5 | conc/live cell, IL-17A [19]: 2.9 pg/10^5 | Concentration, IL-17A [20]: 22.9 pg/mL and 13.8 pg/mL | MFI, Bead name: IL-17A [20]: 14.5 and 8.5 | conc/live cell, IL-17A [20]: 3.6 pg/10^5 and 2.3 pg/10^5 | Concentration, IL-17A [21]: 3.5 pg/mL | MFI, Bead name: IL-17A [21]: 2.0 | conc/live cell, IL-17A [21]: 0.5 pg/10^5 | Concentration, IL-17A [22]: 2.7 pg/mL and 4.3 pg/mL | MFI, Bead name: IL-17A [22]: 1.5 and 2.5 | conc/live cell, IL-17A [22]: 0.4 pg/10^5 and 0.6 pg/10^5
